Measurements as given in patent US20250197864A1, “LNCRNA TRANSCRIPTS IN MELANOMAGENESIS” (The Regents of the University of California, priority 2021, published 2025).

System: gene expression in D04 melanoma cells
Experiment: RNA-Seq differential expression analysis (DESeq2)
Assay type: cell-based, human
Procedure: Total RNA was isolated using the RNeasy mini Kit (QIAGEN) following the manufacturer's protocol. Quality check for extracted RNA was done using 2100 Bioanalyzer (Agilent Technologies, USA) or Tapestation System (Agilent Technologies, USA). […] For samples used for identification of MAPK-responsive lncRNAs, paired-end, 101-bp sequencing was performed by Centrillion Genomic Services (Centrillion Biosciences, USA) on an Illumina HiSeq 2000. For DE gene analysis of ASO-transfected D04 samples, paired-end, 2×150-bp sequencing was performed by Genewiz (USA) on a Illumina HiSeq.
Sequence reads were aligned to the human genome (hg19) using TopHat (Version 2.0.11).
Differential expression (DE) analysis was done using DESeq2. Differentially expressed genes were defined by more than 1.5-fold changes (log 2 >0.58 or <−0.58) in expression with FDR<0.05. GO term analysis was done using DAVID Functional Annotation Clustering analysis.
To examine the biomolecular changes upon TRASH-inhibition in melanoma, D04 cells were treated with TRASH-ASOs (SEQ ID NO:15) and Control-ASOs and RNA was extracted and used for RNA-Seq. […] These GO terms consisted of genes encoding growth factors, tyrosine kinases, G protein coupled receptor subunits, and collagen subunits. Scatter plot diagram showing differential gene expression after TRASH-ASO treatment compared to Control-ASO treatment. (cut-off for significance was adjusted p-value <0.05). Data was obtained from RNA-Seq of D04 melanoma cells, treatment period was three days. (FIG. 5c)

[1] = D04 cells, three days, vs Control-ASO, cut off >1.5-fold change and FDR <0.05

GACTGGAGATAATTAA (gapmer, pattern not given here) [SEQ ID NO: 15, GapmeR ASO targeting AC004540.4 (TRASH), exon region of both isoforms; used for in vitro experiments]
log2FoldChange (CATSPERG (ENSG00000099338)): 1.259
log2FoldChange (CCDC187 (ENSG00000260220)): 2.881
log2FoldChange (CD274 (ENSG00000120217)): 1.226
log2FoldChange (CD300C (ENSG00000167850)): 2.474
log2FoldChange (CDH4 (ENSG00000179242)): 1.668
log2FoldChange (CELF2 (ENSG00000048740)): −0.6612
log2FoldChange (CFI (ENSG00000205403)): −0.6803
log2FoldChange (CHCHD10 (ENSG00000250479)): −0.6153
log2FoldChange (CHL1 (ENSG00000134121)): −0.6927
log2FoldChange (CHMP1B2P (ENSG00000278530)): −0.6924
log2FoldChange (CIITA (ENSG00000179583)): −0.6508
log2FoldChange (CLDN3 (ENSG00000165215)): 1.402
log2FoldChange (CNTN1 (ENSG00000018236)): −0.6103
log2FoldChange (CNTNAP3B (ENSG00000154529)): −0.6749
log2FoldChange (COL4A5 (ENSG00000188153)): −0.6293
log2FoldChange (COL20A1 (ENSG00000101203)): 2.951
log2FoldChange (COL27A1 (ENSG00000196739)): −0.6335
log2FoldChange (COLGALT2 (ENSG00000198756)): −0.6617
log2FoldChange (CREB3L3 (ENSG00000060566)): −0.704
log2FoldChange (CREG2 (ENSG00000175874)): −0.6351
log2FoldChange (CSF2RB (ENSG00000100368)): 3.672
log2FoldChange (CSMD3 (ENSG00000164796)): −0.6823
log2FoldChange (CX3CL1 (ENSG00000006210)): −0.5835
log2FoldChange (CYP4F32P (ENSG00000223564)): −0.6527
log2FoldChange (CYP27A1 (ENSG00000135929)): −0.625
number of genes down-regulated [1]: 574 genes
number of genes up-regulated [1]: 493 genes
log2FoldChange (DAW1 (ENSG00000123977)): 2.338
log2FoldChange (DBNDD1 (ENSG00000003249)): −0.6098
log2FoldChange (DCAF8L2 (ENSG00000189186)): −0.6365
log2FoldChange (DCLK1 (ENSG00000133083)): 2.001
log2FoldChange (DHRS3 (ENSG00000162496)): −0.6585
log2FoldChange (DHRS11 (ENSG00000278535)): −0.6876
log2FoldChange (DLEU7 (ENSG00000186047)): 1.438
log2FoldChange (DLG4 (ENSG00000132535)): −0.6697
log2FoldChange (DLX1 (ENSG00000144355)): −0.6655
log2FoldChange (DMPK (ENSG00000104936)): −0.6857
log2FoldChange (DNAH6 (ENSG00000115423)): 1.798
log2FoldChange (DNAH11 (ENSG00000105877)): 1.75
log2FoldChange (DOK7 (ENSG00000175920)): 1.741
log2FoldChange (DPF3 (ENSG00000205683)): 1.473
log2FoldChange (DRGX (ENSG00000165606)): 1.312
log2FoldChange (DYNC1I2 (ENSG00000077380)): −0.6997
log2FoldChange (EMILIN1 (ENSG00000138080)): −0.6247
log2FoldChange (ENO3 (ENSG00000108515)): −0.6026
log2FoldChange (ENOX1 (ENSG00000120658)): −0.7019
log2FoldChange (ENOX2 (ENSG00000165675)): −0.6448
log2FoldChange KDM7A (ENSG00000006459, up-regulated list): 0.6751
log2FoldChange CCL26 (ENSG00000006606, up-regulated list): 0.6667
log2FoldChange BIRC3 (ENSG00000023445, up-regulated list): 0.9484
log2FoldChange NEDD4L (ENSG00000049759, up-regulated list): 0.9476
log2FoldChange SLC4A8 (ENSG00000050438, up-regulated list): 1.215
log2FoldChange RRP12 (ENSG00000052749, up-regulated list): 0.614
log2FoldChange MCF2L2 (ENSG00000053524, up-regulated list): 0.71
log2FoldChange RASGRF1 (ENSG00000058335, up-regulated list): 1.152
log2FoldChange MPC1 (ENSG00000060762, up-regulated list): 0.9395
log2FoldChange GSTO2 (ENSG00000065621, up-regulated list): 0.6503
log2FoldChange SPTB (ENSG00000070182, up-regulated list): 0.7656
log2FoldChange ASNS (ENSG00000070669, up-regulated list): 0.7766
log2FoldChange SLC6A15 (ENSG00000072041, up-regulated list): 0.8053
log2FoldChange PPP2R3A (ENSG00000073711, up-regulated list): 0.6253
log2FoldChange FSCN1 (ENSG00000075618, up-regulated list): 0.7766
log2FoldChange ANKRD13A (ENSG00000076513, up-regulated list): 0.723
log2FoldChange DCT (ENSG00000080166, up-regulated list): 0.9874
log2FoldChange ATP8B1 (ENSG00000081923, up-regulated list): 0.9522
log2FoldChange SERTAD4 (ENSG00000082497, up-regulated list): 0.7371
log2FoldChange ABCB1 (ENSG00000085563, up-regulated list): 0.7955
log2FoldChange HSD17B2 (ENSG00000086696, up-regulated list): 0.6195
log2FoldChange LAT2 (ENSG00000086730, up-regulated list): 0.8215
log2FoldChange PPP1R15A (ENSG00000087074, up-regulated list): 0.8007
log2FoldChange LYZ (ENSG00000090382, up-regulated list): 0.9901
log2FoldChange EPB41L4B (ENSG00000095203, up-regulated list): 1.165
log2FoldChange TBC1D2 (ENSG00000095383, up-regulated list): 0.7709
log2FoldChange IL11 (ENSG00000095752, up-regulated list): 1.064
log2FoldChange DSP (ENSG00000096696, up-regulated list): 0.6307
log2FoldChange MISP (ENSG00000099812, up-regulated list): 1.058
log2FoldChange CDHR5 (ENSG00000099834, up-regulated list): 0.8144
log2FoldChange GGT1 (ENSG00000100031, up-regulated list): 0.8806
log2FoldChange IL2RB (ENSG00000100385, up-regulated list): 0.8537
log2FoldChange DHRS2 (ENSG00000100867, up-regulated list): 0.8953
log2FoldChange PYGB (ENSG00000100994, up-regulated list): 0.8557
log2FoldChange SLCO4A1 (ENSG00000101187, up-regulated list): 1.202
log2FoldChange LAMA1 (ENSG00000101680, up-regulated list): 0.7271
log2FoldChange SYP (ENSG00000102003, up-regulated list): 1.211
log2FoldChange NECAB2 (ENSG00000103154, up-regulated list): 0.9871
log2FoldChange NDRG1 (ENSG00000104419, up-regulated list): 0.6175
log2FoldChange TRMT1 (ENSG00000104907, up-regulated list): 0.655
